US20260207551A1, “PHOSPHOGLICERATE DEHYDROGENASE INHIBITORS FOR THE TREATMENT OF FIBROSIS” (CHIESI FARMACEUTICI S.P.A., priority 2022, published 2026)

Experiments:
[1] = tested on: αSMA; assay: Phenotypic assay: high content aSMA staining in NHLF cells; format: cell-based, Human; conditions: for IC50: Homo sapiens, SMA, 72 h, read-out: aSMA pIC50 (converted)
Experimental: NHLF cells (Lonza #CC2512) were seeded as 2000 cells/well in 384-well plates in MEM medium w/o serine and glycine (Sigma #M2279)+1% pen/strep+5 mM L-glutamine +10% FBS and incubated overnight at 37° C., 5% CO2.
The next day, cells were washed with PBS and starvation MEM medium w/o serine and glycine (0% FBS) was added and cells were incubated overnight at 37° C., 5% CO2. The day after, cells were pre-incubated with compounds or vehicle (0.3% DMSO) for 1 h. Compounds were tested at 9 consecutive 3-fold dilutions starting from 30 μM. Each compound was tested in duplicate. Cells were further incubated for 72 h at 37° C., 5% CO2, 95% humidity. After 72 h of incubation, αSMA expression was quantified using immunostaining: • Fixation in 4% paraformaldehyde, • Blocking with 3% BSA, 2% FBS, 0.2% Triton-X in PBS, • Primary ab. anti-αSMA (AbCam #ab7817) diluted 500× in blocking buffer • Anti-mouse secondary ab. AF488 (ThermoFisher #A11029) • % of αSMA positive cells was determined by High Content Imaging (Molecular Device), data analysis was performed using MetaXpress software (Molecular Devices) and % of αSMA positive was further used to calculate % of inhibition for tested compounds. Total cell number was determined by Hoechst staining and % of viability over TGFβ stimulated controls was calculated.

[2] = tested on: alpha smooth muscle actin (α-SMA); assay: TGF-b induced α-SMA expression in NHLFs (Western blot); format: cell-based, Human; conditions: 50 uM; NHLF, TGF-β (10 ng/ml) 48 h
Text: The antifibrotic activity of compounds of the present invention has been monitored measuring the expression of fibrotic mediators, collagen I (Col-I) and alpha smooth muscle actin (α-SMA) after treatment in lung cells with TGF-β in comparison with Nintedanib (see Frank Hilberg et al, Cancer Res 2008 Jun. 15; 68(12):4774-82), and allosteric inhibitor NCT-503 (see Hamanaka et al., Am J Respir Cell Mol Biol. 2018 May; 58(5):585-593).
Human normal lung fibroblasts (NHLFs) were purchased from Lonza (Basel, Switzerland). NHFLs were cultured in Eagle's Minimum Essential medium (EMEM) w/o serine and glycine, supplemented with 10% Fetal Bovine Serum (FBS), antibiotics (50 U/ml penicillin and 0.05 mg/ml streptomycin) and 2 mM L-glutamine, in an atmosphere of 95% air and 5% CO2 at 37° C. NHLFs cultures were used between passage 1 and 9. Before all the experiments, cells were incubated overnight in serum-free medium.
NHLFs were seeded in 12-well plates at cultured until 70% of confluency. To examine the expression of fibrotic markers, cells were treated with different concentrations of Compounds and NCT-503 in EMEM medium for 1 h followed by stimulation with TGF-β for 48 h at 37° C., 5% CO2. Following cell treatments, medium was removed and whole cell extracts were prepared by directly adding to the well the 1× loading buffer (125 mM Tris-HCl pH 6.8, 4% SDS, 0.2% Orange G, 50% glycerol, 2.5% β-mercaptoethanol, Li-cor Biosciences), boiled for 5 min and then electrophoresed on Mini protean TGX gel 4-12% (Biorad). After electrophoresis, proteins were transferred to a nitrocellulose membrane. Immunodetection of Col-I, α-SMA and glyceraldeide 3-phosphate dehydrogenase (GAPDH) were obtained by using mouse anti-CollA1 (Santacruz), mouse anti-α-SMA (sigma) and rabbit anti-GAPDH (Cell Signaling Technology) all diluted at 1:1000 in TBS-tween 0.1%. […] Detection and quantification were performed with Odyssey imaging system (Li-cor) using GAPDH as loading control.

[3] = tested on: bleomycin-induced pulmonary fibrosis; assay: Bleomycin-induced pulmonary fibrosis in male mice (Comparative Example 7); format: in vivo; conditions: for lung/body weight: NCT-503 100 mg/kg/day, Nintedanib esylate 60 mg/Kg/day
Experimental: The allosteric inhibitor NCT-503 has accordingly been assessed in the same murine model of Compound 19. Comparative Example 7 was carried out under the same experimental conditions of Example 5.
The treatment was stopped at day 10, after 4 days of treatment with NCT-503 600 mg/kg/day. After two days wash-out, the treatment re-started with a once daily regimen at the final dose of […].
The final dose was of 100 mg/kg/day.

[4] = Plasma and brain exposure after the last dose in bleomycin model (Comparative Example 7); format: in vivo, mice; conditions: after the last oral dose; 0.5 h, 2 h and 7 h
Experimental: Plasma and tissue exposures of NCT-503 were determined as described in Example 2. The plasma and brain concentrations of NCT-503 were determined by a liquid chromatography-tandem mass spectrometry (LC/MS/MS) assay. Plasma or tissue homogenate samples (tissues were homogenized with a water/acetonitrile 50/50 mixture) were extracted with 3 volumes of acetonitrile. Supernanatant was injected into HPLC system (Agilent 1260 Quaternary Pump equipped with an Agilent 1200 High Performance Autosampler SL; Agilent), using a Kinetex EVO C18 analytical column (100 A, 50×2.1 mm, 2.6 μm; Phenomenex). The mobile phases consisted of 0.1% formic acid in water (solvent A) and 0.1% formic acid in acetonitrile (solvent B); chromatographic separation was performed with gradient elution method (0.0-0.5 min, 5% B; 0.5-4.0 min, gradient to 90% B; 4.0-5.5 min, 90% B; 5.5-7.0 min, gradient to 5% B; 7.0-11.0 min, 5% B—flow rate: 0.3 mL/min).
Mass spectrometric analysis was performed on a linear ion trap triple quadrupole mass spectrometer (4000 Q TRAP; AB SCIEX) equipped with a turbo spray ion source; mass spectrometer was operated in positive ion mode and quantification was achieved by multiple reaction monitoring (MRM) mode. Peak integration was performed using Analyst (version 1.6.2.). […]
Plasma and brain exposure of NCT-503 was determined following the last oral dose at three timepoints (0.5 h, 2 h and 7 h).

[5] = tested on: bleomycin-induced pulmonary fibrosis; conditions: treated mice 7 days after intratracheal instillation of bleomycin; cited from earlier work
[6] = tested on: bleomycin-induced pulmonary fibrosis; assay: Bleomycin-induced pulmonary fibrosis in male mice (Example 6); format: in vivo, Male C57BL6/J mice; conditions: Nintedanib esylate 50 mg/Kg bid
Experimental: The effect of Compound 19a was evaluated in a murine model (C57BL/6J mouse strain) in which fibrosis was induced by a double oropharyngeal (OA) instillation of bleomycin. The Compound 19a was administered under therapeutic regimen for 14 days, starting the treatments at day 7 from the first instillation of Bleomycin OA up to the day 21, considered the endpoint for this model.
All mice were maintained under pathogen-free conditions and had free access to food and water.
Lung injury was induced by double OA instillation of bleomycin hydrochloride (BLM, BAXTER, Deerfield, IL, USA) at day 0 and day 4 at the dose of 0.03 U/mouse in […] of saline solution (NaCl 0.9%). Control animals received double OA instillation of […] of saline solution.
The Compound 19a was orally administered twice daily at the three doses of 3, 30 and 100 mg/Kg 10 mL/Kg, using as vehicle for dissolution the 0.5% Tween 80, 0.5% Methylcellulose in H2O.
On day 21, the respiratory system mechanics were measured using the FlexiVent System (SCIREQ Inc., Montreal Qc, Canada) (Vanoirbeek et al., 2010).
Briefly, mice were anesthetized by intraperitoneal injection of ketamine (Anesketin®, Dechra Inc., Handelsweg, NL) and xylazine (Xilagesic®, Calier Inc., Barcelona, ES) solution (100 mg/Kg and 10 mg/Kg, respectively). Once anesthesia was achieved, to analyze forced vital capacity (FVC), anesthetized mice were tracheotomized using an 18-gauge metal cannula, connected via an endotracheal cannula to the FlexiVent and ventilated at a respiratory rate of 150 breaths/min and tidal volume of 10 mL/Kg against a positive end-expiratory pressure of 3 cm H2O to achieve a mean lung volume close to that during spontaneous breathing. To prevent spontaneous breathing mice also received pancuronium bromide at 1 mg/Kg intraperitoneally. FlexiVent software version 8.1 was used to perform the perturbations.
Immediately after the in-life evaluation, plasma and bronchoalveolar lavage fluid (BALF) samples were collected.
First, blood was collected by cardiac puncture, and plasma was obtained after centrifugation of blood at 2000×g and 4° C. for 10 minutes.
Subsequently, the lungs were gently rinsed three times using a tracheal cannula with 0.6 mL of clear BAL solution. The obtained BALF was centrifuged at 1000×g and 4° C. for 10 minutes. The cell-free supernatant was used for biomarkers quantitative determination.
The following biomarkers were determined in BALF and plasma samples by commercially available ELISA kits: Collagen I (evaluated in BALF), an index of collagen accumulation; matrix metallopeptidase 7 (MMP-7, evaluated in BALF), indicator of aberrant fibrogenesis and ECM remodeling and surfactant protein D (SP-D, evaluated in PLASMA), marker of alveolar epithelial cell damage and dysfunction.
Lastly, the entire lungs were resected, fixed with formalin and embedded in paraffin. Sections were stained with Masson's trichrome to assess the grade and severity of fibrosis and collagen deposition.

[7] = tested on: bleomycin-induced pulmonary fibrosis; assay: Bleomycin-induced pulmonary fibrosis in male mice (Example 5)
Experimental: Male C57BL6/J mice (7-8 weeks old) were purchased from the Envigo RMS (San Pietro al Natisone (UD), Italy). All mice were maintained under pathogen-free conditions and were provided food and water ad libitum.
Lung injury was induced by double oropharyngeal instillation of Bleomycin hydrochloride (BLM, BAXTER) at day 0 and day 4 at the doses of 0.02 U/mouse in 50 μl of saline solution (0.9%). Control animals received double oropharyngeal instillation of 50 μl of saline solution.
Compound 19 was orally administered twice daily, starting on day 7 after the first oropharyngeal administration of bleomycin at the two doses of 400 and 600 mg/kg/day, 10 ml/kg, dissolved in 0.5% Tween 80, 0.5% Methylcellulose in H2O and treatment lasted for two weeks.
A group of animals was treated with Nintedanib esylate salt, at the dose of 60 mg/kg/day, 10 ml/kg, once daily, to compare the efficacy of the test compounds with an FDA approved drug for the treatment of IPF patients. Control mice were given vehicle-only over the same time intervals. Weight of all animals has been assessed twice a week starting from day 0 until day 21.
On days 21, mice were anesthetized by intraperitoneal injection of thiopental (200 mg/kg/10 ml; pentothal sodium, MSD Animal Health Srl). Blood was withdrawn by cardiac puncture and collected in heparine tubes. Plasma was obtained after centrifugation of blood at 10,000 g for 10 min. Lungs were lavage with saline solution through the heart, formalin fixed and paraffin embedded, and sections were stained with Masson's Trichrome to evaluate the grade and severity of fibrosis and collagen deposition.
Masson's Trichrome stained slides were also scanned with NanoZoomer S60 (Hamamatsu Photonics K.K., Shizuoka, Japan) and acquired into the Visiopharm Integrator System (VIS; version 2017.2.4.3387) for a quantification of pulmonary fibrosis by automated analysis with the support of a VIS Analysis Protocol Package (APP). The present APP has been designed to identify and then quantify the fibrotic tissue, detecting accumulation of altered connective tissue, excess of collagen deposition and cellular density.
To quantify lung protein content and the levels of specific proteins as markers of fibrosis and collagen deposition, lungs from subgroups of animals were weighted, homogenized in Phosphate buffer solution (PBS) and proteins of interest were quantified by immunometric or colorimetric assays. Hydroxyproline content was determined using the Hydroxyproline Colorimetric Assay Kit (Sigma MAK008, USA) according to the manufacturer's protocol. WISP-1, CollagenI, pro-CollagenI and Elastin were determined by Elisa kits. Protein quantification was performed using DC Protein Assay (Bio-Rad Laboratories, Italy). Plasma serine levels were measured using the DL-Serine Assay Kit (Abcam, Cambridge, MA).

## CCC(C(=O)O)c1ccc(C2(NC(=O)c3cc4c(Cl)c(Cl)ccc4n3C)CCOC2)cc1 (racemic) [Compound 72, (±)-2-{4-[3-(4,5-dichloro-1-methyl-1H-indole-2-amido)oxolan-3-yl]phenyl}butanoic acid]
[1]; NHLF, 72 h incubation
  IC50: 1.26 µM

## Cc1cc(C)nc(NC(=S)N2CCN(Cc3ccc(C(F)(F)F)cc3)CC2)c1 [NCT-503]
[2]
  TGF-b induced a-sma (% inh. 50 uM): 93%
[1]; NHLF, 72 h incubation
  aSMA pIC50: >5.0
[1]; after 72 hours of incubation
  expression of aSMA (in words): partially reduces the expression of aSMA
[3]; 100 mg/kg/day
  fibrosis severity (FIG. 20B): not significant trend in reducing fibrosis severity
[3]; 100 mg/kg/day, compared to vehicle-treated mice
  Ashcroft score analysis (FIG. 20A): did not result in diminished Bleomycin-induced lung fibrosis
[3]; 200 mg/kg/day
  body weight: did not show a significant worsening of the body weight
[3]; 600 mg/kg/day (bid)
  tolerability: did not tolerate
[3]; 600 mg/kg/day then 300 mg/kg/day once daily
  survival: 40%
[3]; 600 mg/kg/day, 4 days of treatment
  weight loss compared to Day 0: ~ 20%
[3]
  lung/body weight: do not induce reduction of lung/body weight
[3]; lung homogenates
  levels of pro-CollagenI and WISP-1: not affected
[3]; plasma
  circulating serine levels (de novo serine synthesis): did not induce inhibition of de novo serine synthesis
[4]
  main brain/plasma ratio: 2.4
[5]
  attenuation of lung fibrosis: preliminary efficacy in attenuation of lung fibrosis

## COC(=O)c1ccc2c(c1)NC(=O)/C2=C(\Nc1ccc(N(C)C(=O)CN2CCN(C)CC2)cc1)c1ccccc1 [Nintedanib, reference compound]
[6]; Compound 19a 100 mg/Kg bid
  reduction of Collagen I in BALF: 56%
  reduction of MMP-7 in BALF: 86%
  reduction of SP-D levels in plasma: 87%
[6]; Compound 19a 100 mg/kg bid, vs BLM/vehicle
  improvement of FVC decline: similarly to Nintedanib
[3]
  lung/body weight: do not induce reduction of lung/body weight
[7]; Compound 19 highest dose (600 mg/kg/day), Nintedanib esylate 60 mg/kg/day, not significant
  reduction of lung/body weight: −21%
[7]; compared to BLM/Vehicle treated group
  body weight during 2-weeks of treatment: did not lose additional weight
[7]; day 21
  Ashcroft score (FIG. 11A): reduced

## COc1cc2c(cc(C(=O)NC3(c4ccc(C(C(=O)O)C(C)C)cc4)CCOC3)n2C)c(Cl)c1Cl (racemic) [Compound 20, (±)-2-{4-[3-(4,5-dichloro-6-methoxy-1-methyl-1H-indole-2-amido)oxolan-3-yl]phenyl}-3-methylbutanoic acid]
[1]; NHLF, 72 h incubation
  IC50: 1.26 µM

## Cn1c(C(=O)NC2(c3ccc(C(C(=O)O)C4CC4)cc3)CCOC2)cc2c(Cl)c(Cl)ccc21 (racemic) [Compound 15, (±)-2-Cyclopropyl-2-(4-(3-(4,5-dichloro-1-methyl-1H-indole-2-carbox-amido)tetrahydrofuran-3-yl)phenyl)acetic acid]
[1]; NHLF, 72 h incubation
  IC50: 2 µM

## Cn1c(C(=O)NC2(c3ccc(C(C(=O)O)C4CCCC4)cc3)CCOC2)cc2c(Cl)c(Cl)ccc21 (racemic) [Compound 16, (±)-2-cyclopentyl-2-{4-[3-(4,5-dichloro-1-methyl-1H-indole-2-amido)oxolan-3-yl]phenyl}acetic acid]
[1]; NHLF, 72 h incubation
  IC50: 0.501 µM
